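Results reflect a 48-hour exposure of cells in 96-well plates to compound at five concentrations. Abbreviation: GI50, concentration required for 50% inhibition of growth.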 Calls of active or inactive are those of the source. Rule as the data show it: active = GI50 up to about 1.1 µM and inactive = higher.
Key:
Experiment in all cases: NCI tumour cell line growth inhibition, 48 h
786-0 = test system: 786-0
BT-549 = test system: BT-549
COLO 205 = test system: COLO 205
HCT-116 = test system: HCT-116
HOP-92 = test system: HOP-92
M14 = test system: M14
MCF7 = test system: MCF7
MOLT-4 = test system: MOLT-4
Malme-3M = test system: Malme-3M
NCI-H522 = test system: NCI-H522
OVCAR-8 = test system: OVCAR-8
SF-295 = test system: SF-295
SK-OV-3 = test system: SK-OV-3
SNB-19 = test system: SNB-19
SNB-75 = test system: SNB-75
SW-620 = test system: SW-620
UACC-62 = test system: UACC-62
A498 = test system: A498
TK-10 = test system: TK-10
RXF 393 = test system: RXF 393

| Structure (SMILES) | GI50 (786-0) | GI50 (BT-549) | GI50 (COLO 205) | GI50 (HCT-116) | GI50 (HOP-92) | GI50 (M14) | GI50 (MCF7) | GI50 (MOLT-4) | GI50 (Malme-3M) | GI50 (NCI-H522) | GI50 (OVCAR-8) | GI50 (SF-295) | GI50 (SK-OV-3) | GI50 (SNB-19) | GI50 (SNB-75) | GI50 (SW-620) | GI50 (UACC-62) | GI50 (A498) | GI50 (TK-10) | GI50 (RXF 393) |
| --- | --- | --- | --- | --- | --- | --- | --- | --- | --- | --- | --- | --- | --- | --- | --- | --- | --- | --- | --- | --- |
| Cc1n[nH]c(=O)n1Nc1ccccc1 | > 100 µM (inactive) | > 100 µM (inactive) | > 100 µM (inactive) | > 100 µM (inactive) | > 100 µM (inactive) | > 100 µM (inactive) | > 100 µM (inactive) | > 100 µM (inactive) | > 100 µM (inactive) | > 100 µM (inactive) | > 100 µM (inactive) | > 100 µM (inactive) | > 100 µM (inactive) | > 100 µM (inactive) | > 100 µM (inactive) | > 100 µM (inactive) | > 100 µM (inactive) |  |  |  |
| COC(=O)Cc1c(-c2c(CC(=O)OC)c3ccccc3n2C2OC(COC3OC(COC(C)=O)C(OC(C)=O)C(OC(C)=O)C3OC(C)=O)C(O)C(O)C2O)[nH]c2ccccc12 (centres undefined) | 37 µM (inactive) | 44.7 µM (inactive) | > 100 µM (inactive) | > 100 µM (inactive) | 27.9 µM (inactive) | > 100 µM (inactive) | > 100 µM (inactive) | > 100 µM (inactive) |  |  |  | 36.6 µM (inactive) | 74.8 µM (inactive) | 22.8 µM (inactive) |  | > 100 µM (inactive) | > 100 µM (inactive) | 57.8 µM (inactive) | 71 µM (inactive) |  |
| CC(/C=C/c1ccccc1)=N\NC(N)=S | 34 µM (inactive) | 29.9 µM (inactive) | 20.5 µM (inactive) | 35.7 µM (inactive) | > 100 µM (inactive) | 26.5 µM (inactive) | 33 µM (inactive) | 24.4 µM (inactive) | 45.7 µM (inactive) |  | 39 µM (inactive) | 21.5 µM (inactive) | 45.4 µM (inactive) | 24 µM (inactive) |  | 50.4 µM (inactive) |  | 22.2 µM (inactive) | 39.4 µM (inactive) |  |
| C=C(C)C1CC[C@@](C)(O)[C@H](C#N)C1 (some centres undefined) | > 100 µM (inactive) | > 100 µM (inactive) | > 100 µM (inactive) | > 100 µM (inactive) |  | > 100 µM (inactive) | > 100 µM (inactive) | > 100 µM (inactive) | > 100 µM (inactive) | > 100 µM (inactive) | > 100 µM (inactive) | > 100 µM (inactive) | > 100 µM (inactive) | > 100 µM (inactive) | 44.5 µM (inactive) | > 100 µM (inactive) | > 100 µM (inactive) | > 100 µM (inactive) | > 100 µM (inactive) | > 100 µM (inactive) |
| O=P1(O)c2ccccc2CCc2ccccc21 | > 100 µM (inactive) | 80.7 µM (inactive) | > 100 µM (inactive) | > 100 µM (inactive) | > 100 µM (inactive) | > 100 µM (inactive) | > 100 µM (inactive) | > 100 µM (inactive) |  | > 100 µM (inactive) | > 100 µM (inactive) | > 100 µM (inactive) | > 100 µM (inactive) | > 100 µM (inactive) | > 100 µM (inactive) | > 100 µM (inactive) | > 100 µM (inactive) |  | > 100 µM (inactive) | > 100 µM (inactive) |
| COc1ccc(NCc2cc(OC)c(OC)c(OC)c2)cc1 | 0.583 µM (active) |  | 0.291 µM (active) | 0.408 µM (active) | 1.39 µM (inactive) | 0.265 µM (active) | 0.491 µM (active) | 0.493 µM (active) | 0.488 µM (active) | 0.307 µM (active) | 0.716 µM (active) | 0.294 µM (active) | 0.463 µM (active) | 0.698 µM (active) |  | 0.215 µM (active) | 0.274 µM (active) | 0.521 µM (active) |  | 0.372 µM (active) |
| COc1ccc(S(=O)(=O)Nc2ccc(-c3csc(N4C(=O)/C(=C/c5cccs5)N=C4c4ccccc4)n3)cc2)cc1Cl | 57.5 µM (inactive) |  | 40.6 µM (inactive) | 30.9 µM (inactive) | 22.5 µM (inactive) | 34.7 µM (inactive) | 46.9 µM (inactive) | 32.8 µM (inactive) | 32.3 µM (inactive) | 22.3 µM (inactive) | 34 µM (inactive) | 10.4 µM (inactive) | > 100 µM (inactive) | 49.7 µM (inactive) | 44.8 µM (inactive) | 50.9 µM (inactive) | 31.1 µM (inactive) | 24.3 µM (inactive) | 56.1 µM (inactive) | 29.5 µM (inactive) |
| CC12CC3OC(=O)C1COC14OC5(C2C1=O)C(O)(CCC1C4CC(O)C2(O)CC=CC(=O)C12C)C(=O)OC35C (centres undefined) | > 100 µM (inactive) | > 100 µM (inactive) | > 100 µM (inactive) | > 100 µM (inactive) | > 100 µM (inactive) | > 100 µM (inactive) | > 100 µM (inactive) | > 100 µM (inactive) | > 100 µM (inactive) | > 100 µM (inactive) | > 100 µM (inactive) | > 100 µM (inactive) | > 100 µM (inactive) | > 100 µM (inactive) | > 100 µM (inactive) | > 100 µM (inactive) | > 100 µM (inactive) |  | > 100 µM (inactive) |  |
